For the test, the system named is NIH3T3 cell. Kind of test: NIH3T3 cell adhesion on film. The conditions noted are these: seeded 10^4 cells/cm^2 in D-MEM, 5% CO2, 37° C., 1 hour, washed three times with PBS, counted at five positions. The test is classed as cell-based. The procedure:
A NIH3T3 cell suspended in D-MEM was added onto the resulting Gly-Arg-Gly-Asp-Ser-conjugated poly(Pro-Hyp-Gly) film at a ratio of 10^4 cells/cm^2, followed by allowing to stand in 5% CO2 at 37° C. for 1 hour. The non-adhered cell was washed out three times with PBS and the number of adhered cells was counted at five positions on the film.

Take “bovine collagen type I: Bovine collagen type I coated on a plastic dish, comparison surface”: the “number of adhered cells (average)” value is given as 6,000 cells/cm^2.
As to poly(Pro-Hyp-Gly), the “number of adhered cells (average)” value is recorded as 2,000 cells/cm^2.

Source of the values: patent US8357774B2, “Polypeptide and process for producing the same” (National University Corporation Nara Institute of Science …, priority 2007, dated 2013).
